This note sets out measurements from patent US20230365627A1, “MACROCYCLIC PEPTIDE BORONATE IMMUNOMODULATORS” (Bristol-Myers Squibb Company, priority 2020, published 2023).

This test has as its target PD-1/PD-L1 (Homo sapiens (Human), UniProt Q9NZQ7). As to the kind of experiment: PD-1/PD-L1 Homogenous Time-Resolved Fluorescence (HTRF) binding assay.
Where [1] appears, read: PD-L1-His 10 nM, PD-1-Ig 20 nM, read-out: HTRF IC50.

Molecules are shown by their SMILES. Where two headings read alike, the source gives them in different places. *1 amine or outer side, *2 acyl side, *3 side chain or, on linkers, in order; H or OH if unused. Where a SMILES comes first, the peptide text is derived from it. Bridges are numbered along the chain shown (N, C = ends). [ ]: non-standard residue; d: D form. X23 = O=C([C@H](CN1Cc2ccc(cc2)B2O[C@@H]([C@H](O)[C@@H](C(O)CO)O2)[C@H](O)C1)N[*:1])[*:2]; X12 = O=C([C@H](CN1Cc2ccccc2B2O[C@@H]([C@H](O)[C@@H](C(O)CO)O2)[C@H](O)C1)N[*:1])[*:2]; X16 = O=C([C@H](CN(Cc1cccc(B(O)O[*:3])c1)Cc1cccc2ccc3ccccc3c12)N[*:1])[*:2]; X13 = O=C([C@H](CCNC[C@@H](O)[C@@H](O)[C@H](O)[C@H](O)C(O)CO)N[*:1])[*:2]; Trp(1-CH2CO) = O=C([C@H](Cc1cn(CC(=O)[*:3])c2ccccc12)N[*:1])[*:2]; Trp(1-CH2COOH) = N[C@@H](Cc1cn(CC(=O)O)c2ccccc12)C(=O)O; X8 = O=C([C@H](CNCc1ccc(B(O)O[*:3])cc1Cl)N[*:1])[*:2]; X11 = COc1ccc(CNCC[C@H](N[*:1])C(=O)[*:2])cc1B(O)O; X10 = COc1ccc(CNC[C@H](N[*:1])C(=O)[*:2])cc1B(O)O; X9 = O=C([C@H](CCNCc1ccc(B(O)O)cc1Cl)N[*:1])[*:2]; X17 = O=C([C@H](CCNCc1cccc(B(O)O)c1)N[*:1])[*:2]; Hyp = O=C(O)[C@@H]1C[C@@H](O)CN1; NMeNle = CCCC[C@H](NC)C(=O)O; NMeA = CN[C@@H](C)C(=O)O

Sequence of PD-1/PD-L1 (Q9NZQ7 18-239): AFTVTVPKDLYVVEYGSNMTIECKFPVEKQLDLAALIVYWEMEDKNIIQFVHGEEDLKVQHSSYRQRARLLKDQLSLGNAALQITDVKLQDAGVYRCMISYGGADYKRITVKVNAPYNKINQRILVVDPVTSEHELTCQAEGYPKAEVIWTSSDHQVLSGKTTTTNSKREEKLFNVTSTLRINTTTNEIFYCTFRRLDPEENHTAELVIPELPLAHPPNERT

As for `CCCC[C@H]1C(=O)N(C)[C@@H](CCCC)C(=O)N[C@@H](CC(C)C)C(=O)N[C@H](C(=O)NCC(N)=O)CSCC(=O)N[C@H]2Cc3ccc(cc3)OB(O)c3ccc(c(C(F)(F)F)c3)CNCC[C@@H]3NC(=O)[C@H](Cc4c[nH]c5ccccc45)NC(=O)[C@@H]4C[C@@H](O)CN4C(=O)[C@H](CC(C)C)NC(=O)[C@H](CNCc4ccc(cc4C(F)(F)F)B(O)OC(=O)Cn4cc(c5ccccc54)C[C@H](NC3=O)C(=O)N1C)NC(=O)[C@@H]1CCCN1C(=O)[C@H](CC(N)=O)NC(=O)[C@H](C)N(C)C2=O` [Example 1030], under setting [1], the half-inhibitory concentration (IC50) is 11 nM. As to `CCCC[C@H]1C(=O)N(C)[C@@H](CCCC)C(=O)N[C@@H](CC(C)C)C(=O)N[C@H](C(=O)NCC(N)=O)CSCC(=O)N[C@H]2Cc3ccc(cc3)OB(O)c3cc(F)c(F)cc3CNCC[C@@H]3NC(=O)[C@H](Cc4c[nH]c5ccccc45)NC(=O)[C@@H]4C[C@@H](O)CN4C(=O)[C@H](CC(C)C)NC(=O)[C@H](CNCc4cc(F)c(F)cc4B(O)OC(=O)Cn4cc(c5ccccc54)C[C@H](NC3=O)C(=O)N1C)NC(=O)[C@@H]1CCCN1C(=O)[C@H](CC(N)=O)NC(=O)[C@H](C)N(C)C2=O` [Example 1031], the IC50 under setting [1] was found to be 10 nM. On to `CCCC[C@H]1C(=O)N(C)[C@@H](CCCC)C(=O)N[C@@H](CC(C)C)C(=O)N[C@H](C(=O)NCC(N)=O)CSCC(=O)N[C@@H](Cc2ccc(O)cc2)C(=O)N(C)[C@@H](C)C(=O)N[C@@H](CC(N)=O)C(=O)N2CCC[C@H]2C(=O)N[C@@H](CNCc2ccc(OC)c(B(O)O)c2)C(=O)N[C@@H](CC(C)C)C(=O)N2C[C@H](O)C[C@H]2C(=O)N[C@@H](Cc2c[nH]c3ccccc23)C(=O)N[C@@H](CCNCc2ccc(OC)c(B(O)O)c2)C(=O)N[C@@H](Cc2cn(CC(=O)O)c3ccccc23)C(=O)N1C` [Example 1032] ({CH2CO}-Y[NMeA]NP[X10]L[Hyp]W[X11][Trp(1-CH2COOH)][NMeNle][NMeNle]LCG-NH2; thioether N-14), for which the concentration for half-maximal inhibition (IC50) under setting [1] worked out at 5.9 nM. Take `CCCC[C@H]1C(=O)N(C)[C@@H](CCCC)C(=O)N[C@@H](CC(C)C)C(=O)N[C@H](C(=O)NCC(N)=O)CSCC(=O)N[C@@H](Cc2ccc(O)cc2)C(=O)N(C)[C@@H](C)C(=O)N[C@@H](CC(N)=O)C(=O)N2CCC[C@H]2C(=O)N[C@H]2CNCc3ccc(cc3Cl)B(O)OC(=O)Cn3cc(c4ccccc43)C[C@H](NC(=O)[C@H](CCNCc3ccc(B(O)O)cc3Cl)NC(=O)[C@H](Cc3c[nH]c4ccccc34)NC(=O)[C@@H]3C[C@@H](O)CN3C(=O)[C@H](CC(C)C)NC2=O)C(=O)N1C` [Example 1033] ({CH2CO}-Y[NMeA]NP[X8]L[Hyp]W[X9][Trp(1-CH2CO)][NMeNle][NMeNle]LCG-NH2; ester 5-10; thioether N-14): the IC50 under setting [1] turned out to be 9 nM. Same read-out and setting: next, `CCCC[C@H]1C(=O)N(C)[C@@H](CCCC)C(=O)N[C@@H](CC(C)C)C(=O)N[C@H](C(=O)NCC(N)=O)CSCC(=O)N[C@H]2Cc3ccc(cc3)OB(O)c3ccc(nc3)CNCC[C@@H]3NC(=O)[C@H](Cc4c[nH]c5ccccc45)NC(=O)[C@@H]4C[C@@H](O)CN4C(=O)[C@H](CC(C)C)NC(=O)[C@H](CNCc4ccc(cn4)B(O)OC(=O)Cn4cc(c5ccccc54)C[C@H](NC3=O)C(=O)N1C)NC(=O)[C@@H]1CCCN1C(=O)[C@H](CC(N)=O)NC(=O)[C@H](C)N(C)C2=O` [Example 1034]: 11 nM. `CCCC[C@H]1C(=O)N(C)[C@@H](CCCC)C(=O)N[C@@H](CC(C)C)C(=O)N[C@H](C(=O)NCC(N)=O)CSCC(=O)N[C@@H](Cc2ccc(O)cc2)C(=O)N(C)[C@@H](C)C(=O)N[C@@H](CC(N)=O)C(=O)N2CCC[C@H]2C(=O)N[C@@H](CN2Cc3ccccc3B3O[C@@H]([C@H](O)[C@@H](C(O)CO)O3)[C@H](O)C2)C(=O)N[C@@H](CC(C)C)C(=O)N2C[C@H](O)C[C@H]2C(=O)N[C@@H](Cc2c[nH]c3ccccc23)C(=O)N[C@@H](CCNC[C@@H](O)[C@@H](O)[C@H](O)[C@H](O)C(O)CO)C(=O)N[C@@H](Cc2cn(CC(=O)O)c3ccccc23)C(=O)N1C` (some centres unmarked) [Example 1038] ({CH2CO}-Y[NMeA]NP[X12]L[Hyp]W[X13][Trp(1-CH2COOH)][NMeNle][NMeNle]LCG-NH2; thioether N-14): the IC50 worked out at 6.8 nM. Still for that read-out and setting: next, `CCCC[C@H]1C(=O)N(C)[C@@H](CCCC)C(=O)N[C@@H](CC(C)C)C(=O)N[C@H](C(=O)NCC(N)=O)CSCC(=O)N[C@@H](Cc2ccc(O)cc2)C(=O)N(C)[C@@H](C)C(=O)N[C@@H](CC(N)=O)C(=O)N2CCC[C@H]2C(=O)N[C@@H](CN2Cc3ccc(cc3)B3O[C@@H]([C@H](O)[C@@H](C(O)CO)O3)[C@H](O)C2)C(=O)N[C@@H](CC(C)C)C(=O)N2C[C@H](O)C[C@H]2C(=O)N[C@@H](Cc2c[nH]c3ccccc23)C(=O)N[C@@H](CCNC[C@@H](O)[C@@H](O)[C@H](O)[C@H](O)C(O)CO)C(=O)N[C@@H](Cc2cn(CC(=O)O)c3ccccc23)C(=O)N1C` (some centres unmarked) [Example 1039] ({CH2CO}-Y[NMeA]NP[X23]L[Hyp]W[X13][Trp(1-CH2COOH)][NMeNle][NMeNle]LCG-NH2; thioether N-14): 4.4 nM. For `CCCC[C@H]1C(=O)N(C)[C@@H](CCCC)C(=O)N[C@@H](CC(C)C)C(=O)N[C@H](C(=O)NCC(N)=O)CSCC(=O)N[C@@H](Cc2ccc(O)cc2)C(=O)N(C)[C@@H](C)C(=O)N[C@@H](CC(N)=O)C(=O)N2CCC[C@H]2C(=O)N[C@H]2CN(Cc3cccc4ccc5ccccc5c34)Cc3cccc(c3)B(O)OC(=O)Cn3cc(c4ccccc43)C[C@H](NC(=O)[C@H](CCNCc3cccc(B(O)O)c3)NC(=O)[C@H](Cc3c[nH]c4ccccc34)NC(=O)[C@@H]3C[C@@H](O)CN3C(=O)[C@H](CC(C)C)NC2=O)C(=O)N1C` [Example 1042] ({CH2CO}-Y[NMeA]NP[X16]L[Hyp]W[X17][Trp(1-CH2CO)][NMeNle][NMeNle]LCG-NH2; ester 5-10; thioether N-14), under setting [1], the IC50 came out at 94 nM.

As a reminder, the IC50 is the midpoint of a concentration-inhibition curve.
